# Columns and labels:
# Assay type in all cases: in vivo
# [1] = tested on: Psila rosae; assay: Effective dosage of metaflumizone on carrot seeds against Psila rosae
# Excerpt: In order to quantify the effect of metaflumizone against maggots, carrot seeds were coated with different concentrations of metaflumizone, with Birlane™ or left uncoated, then sowed and raised as described in the above Examples.
# [2] = tested on: Psila rosae; assay: Short-term protection of carrots against Psila rosae by seed coating; settings: for Reduction of early damage by maggots: conclusion from Table 2
# Excerpt: In order to determine the efficacy of seed coating against dipteran larvae, carrot seeds were coated with two different concentrations of metaflumizone, Birlane™ or left untreated, then sowed and raised as described in Example 1. At day 35 after sowing, the plants were exposed to infestation by Psila rosae, which was monitored by adult trap catches. 300 to 400 insects per trap indicated fair infestation pressure. At days 35 and 91, respectively, 100 plants per field were examined for maggot infestation.
# All test products were applied by seed coating of carrot seeds. Birlane™ was applied according to label recommendations for carrots. Metaflumizone was applied at 50 ml and 100 ml formulated product per seed unit, respectively. The assessments of carrot rooffly damage were conducted 35 and 91 daysafter sowing. Infestation was evaluated by assessing 100 carrot roots per treatment, and the number of infested plants was recorded. The figures included in the table show the percentage of damaged plants by treatment.
# [3] = tested on: Psila rosae; assay: Long-term effect of carrot seed coating against Psila rosae; settings: for Percentage of plants infested with Psila rosae (long-term): carrot seed coating 100 ml/unit; for Persistence of the protective effect of seed treatment: carrot seed coating, conclusion from Table 3
# Procedure: The objective of this trial was the direct comparison of metaflumizone with the market standard Birlane™ at 100 ml product per unit of seed. Activity evaluation considered the residual activity of the products up to 124 days after application.
# Carrot seeds were coated or left uncoated, sowed and raised as described in Example 2 and subjected to Psila rosae infestation at an approximate density of 300 to 400 insects per trap at days 46 to 53 after sowing. At days 82, 96, 110 and 124, respectively, 100 plants per field were examined for maggot infestation.
# [4] = tested on: carrot seeds; assay: Absence of phytotoxicity: sprouting of treated carrot seeds; settings: for Influence on the viability of carrot seeds: seed treatment, conclusion from Table 1
# Procedure: To determine the effect of seed treatment on the viability of seeds and sprouting plants, carrot seeds were either treated with metaflumizone, coated with the insecticide chlorfenvinphos (commercially available under, and herein referred to by, the name Birlane™) or left untreated, then sowed and raised under controlled environmental conditions. At day 20 and day 43, respectively, the percentage of seeds which had sprouted was assessed.
# [5] = tested on: Helix hortensis; assay: Greenhouse snail trial on sprayed lettuce; settings: lettuce sprayed with 240 g active ingredient per ha (240 g/l suspension concentrate)
# Procedure: For this example, a 240 g/l suspension concentrate of a compound I with R^1=trifluoromethyl in meta position, R^2=cyano in para position and R^3=trifluoromethoxy in para position was used with an application rate of 240 gram active ingredient per ha.
# The trial was carried out in the greenhouse under practical conditions in sandy soil. Three lettuce plants, variety Filipo, growth stage 45-46, were used as plot size. The lettuce was sprayed with a solution of the above mentioned compound at a rate of 240 gram active ingredient per hectare with 500 l/ha water. For spraying was a single Teejet® nozzle, model 8002 (from Spraying System Mobile Systems Division, Wheaton, Ill., USA), at 3 atmosphere pressure used.
# After the spray application, the plots were covered by net cages (diameter 40 cm) and 20 snails (sexually mature individuals of Helix hortensis) were added to every plot.
# Also an estimation of eating damages was recorded.
# [6] = 4 days after placing the snails
smiles,measurement,setting,value
"N#Cc1ccc(CC(=NNC(=O)Nc2ccc(OC(F)(F)F)cc2)c2cccc(C(F)(F)F)c2)cc1 (racemic) [metaflumizone, 2-[2-(4-cyanophenyl)-1-[3-(trifluoromethyl)phenyl]ethylidene]-N-[4-(trifluoromethoxy)phenyl]hydrazinecarboxamide]",Effective dosage of metaflumizone in the treatment of carrot seeds (percentage),"[1]; 25 ml/unit, Day 70",2%
same,Effective dosage of metaflumizone in the treatment of carrot seeds (percentage),"[1]; 25 ml/unit, Day 97",33%
same,Effective dosage of metaflumizone in the treatment of carrot seeds (percentage),"[1]; 25 ml/unit, Day 116",73%
same,Effective dosage of metaflumizone in the treatment of carrot seeds (percentage),"[1]; 50 ml/unit, Day 70",1%
same,Effective dosage of metaflumizone in the treatment of carrot seeds (percentage),"[1]; 50 ml/unit, Day 97",24%
same,Effective dosage of metaflumizone in the treatment of carrot seeds (percentage),"[1]; 50 ml/unit, Day 116",61%
same,Effective dosage of metaflumizone in the treatment of carrot seeds (percentage),"[1]; 75 ml/unit, Day 70",0%
same,Effective dosage of metaflumizone in the treatment of carrot seeds (percentage),"[1]; 75 ml/unit, Day 97",14%
same,Effective dosage of metaflumizone in the treatment of carrot seeds (percentage),"[1]; 75 ml/unit, Day 116",55%
same,Effective dosage of metaflumizone in the treatment of carrot seeds (percentage),"[1]; 100 ml/unit, Day 70",0%
same,Effective dosage of metaflumizone in the treatment of carrot seeds (percentage),"[1]; 100 ml/unit, Day 97",29%
same,Effective dosage of metaflumizone in the treatment of carrot seeds (percentage),"[1]; 100 ml/unit, Day 116",55%
same,Percentage of plants infested with Psila rosae,"[2]; carrot seed coating 50 ml/unit, Day 35 after sowing",3%
same,Percentage of plants infested with Psila rosae,"[2]; carrot seed coating 50 ml/unit, Day 91 after sowing",12%
same,Percentage of plants infested with Psila rosae,"[2]; carrot seed coating 100 ml/unit, Day 35 after sowing",7%
same,Percentage of plants infested with Psila rosae,"[2]; carrot seed coating 100 ml/unit, Day 91 after sowing",10%
same,Reduction of early damage by maggots,[2]; carrot seed coating,effective in reducing early damage by maggots
same,Prevention of damage to seedlings compared with Birlane,"[2]; carrot seed coating, during the first weeks",slightly more efficient than Birlane™
same,Percentage of plants infested with Psila rosae (long-term),[3]; Day 82,2%
same,Percentage of plants infested with Psila rosae (long-term),[3]; Day 96,4%
same,Percentage of plants infested with Psila rosae (long-term),[3]; Day 110,10%
same,Percentage of plants infested with Psila rosae (long-term),[3]; Day 124,22%
same,Persistence of the protective effect of seed treatment,[3],gradually wore off after 3-4 months
same,Percentage of growing plants,"[4]; carrot, in vivo, 20 day",42%
same,Percentage of growing plants,"[4]; carrot, in vivo, 43 day",47%
same,Influence on the viability of carrot seeds,[4],no significant influence
"CCOP(=O)(OCC)O/C(=C\Cl)c1ccc(Cl)cc1Cl [Birlane ™, chlorfenvinphos, reference compound]",Effective dosage of metaflumizone in the treatment of carrot seeds (percentage),"[1]; Birlane, dose not given, Day 70",0.1%
same,Effective dosage of metaflumizone in the treatment of carrot seeds (percentage),"[1]; Birlane, dose not given, Day 97",23%
same,Effective dosage of metaflumizone in the treatment of carrot seeds (percentage),"[1]; Birlane, dose not given, Day 116",61%
same,Percentage of plants infested with Psila rosae,"[2]; carrot seed coating according to label recommendations, Day 35 after sowing",9%
same,Percentage of plants infested with Psila rosae,"[2]; carrot seed coating according to label recommendations, Day 91 after sowing",12%
same,Reduction of early damage by maggots,[2]; carrot seed coating,effective in reducing early damage by maggots
same,Percentage of plants infested with Psila rosae (long-term),[3]; Day 82,0.5%
same,Percentage of plants infested with Psila rosae (long-term),[3]; Day 96,2%
same,Percentage of plants infested with Psila rosae (long-term),[3]; Day 110,8%
same,Percentage of plants infested with Psila rosae (long-term),[3]; Day 124,11%
same,Persistence of the protective effect of seed treatment,[3],gradually wore off after 3-4 months
same,Percentage of growing plants,"[4]; carrot seeds, Day 20, coated with Birlane",52%
same,Percentage of growing plants,"[4]; carrot seeds, Day 43, coated with Birlane",56%
same,Influence on the viability of carrot seeds,[4],no significant influence
"N#Cc1ccc(C/C(=N/NC(=O)Nc2ccc(OC(F)(F)F)cc2)c2cccc(C(F)(F)F)c2)cc1 [metaflumizone, 2-[2-(4-cyanophenyl)-1-[3-(trifluoromethyl)phenyl]ethylidene]-N-[4-(trifluoromethoxy)phenyl]hydrazinecarboxamide]",snails inactive,[5]; 1 day after placing the snails,47%
same,snails inactive,[5]; 2 days after placing the snails,63%
same,snails dead,[5]; [6],71%
same,snails inactive (further to the dead),[5]; [6],12%
